From US6642217B2, “Triterpenes having human antifungal and antiyeast activity” (Naturtek, LLC, priority 2000, dated 2003)
Each block holds one molecule with its values, some of them ahead of it.

Experiments:
Microsporum canis [1] = assay: Agar dilution method, growth on Sabouraud dextrose agar slants; assay type: cell-based; parameters: key: +++: Maximum Fungal Growth; ++: Moderate Fungal Growth; +: Minimum Fungal Growth; +/−: Very little Fungal Growth; −: No Fungal Growth; details: 12th day after inoculation
Protocol: (§1) Agar dilution method. Sabouraud Dextrose Agar (Difco Laboratories, Michigan) was prepared according to the manufacturer's instructions. Five ml was dispensed in a 100×25 mm tube and autoclaved. To each tube containing 5.0 ml of liquid agar at 45° C., 0.5, 0.25, 0.12, or 0.063 ml of a DMSO solution of the compound was added to give the final indicated concentrations in Table 2. The agar was then solidified in slants. Fungal cultures were inoculated. The slants were incubated at 25-28° C. for 10-12 days, and the growth of the fungus was recorded every second day.

Trichophyton rubrum [2] = assay: as above; assay type: cell-based; parameters: key: +++: Maximum Fungal Growth; ++: Moderate Fungal Growth; +: Minimum Fungal Growth; +/−: Very little Fungal Growth; −: No Fungal Growth; details: 12th day after inoculation
Protocol: as §1

Microsporum gypseum = assay: as above; assay type: cell-based; parameters: key: +++: Maximum Fungal Growth; ++: Moderate Fungal Growth; +: Minimum Fungal Growth; +/−: Very little Fungal Growth; −: No Fungal Growth; details: 12th day after inoculation
Protocol: as §1

Pityrosporum ovale [3] = assay: as above; assay type: cell-based; parameters: key: +++: Maximum Fungal Growth; ++: Moderate Fungal Growth; +: Minimum Fungal Growth; +/−: Very little Fungal Growth; −: No Fungal Growth; details: 12th day after inoculation
Protocol: as §1

Microsporum audouinni [4] = assay: as above; assay type: cell-based, Microsporum audouinii; parameters: key: +++: Maximum Fungal Growth; ++: Moderate Fungal Growth; +: Minimum Fungal Growth; +/−: Very little Fungal Growth; −: No Fungal Growth; details: 12th day after inoculation
Protocol: as §1

Microsporum audouinni [5] = assay: Direct addition method, solid compound in Sabouraud dextrose agar; assay type: cell-based, Microsporum audouinii; parameters: key to Fungal growth: +++: Maximum Fungal Growth; ++: Moderate Fungal Growth; +: Minimum Fungal Growth; +/−: Very little Fungal Growth; −: No Fungal Growth; details: for Fungal growth: 4 mg/mL of agar, 12th day after inoculation
Protocol: (§2) Direct addition method. Sabouraud dextrose agar was prepared according to the manufacturer's instructions and 5.0 ml was dispensed in each 100×25 mm tube. The tubes were autoclaved. To each tube containing 5.0 ml of liquid agar at 45° C., 20 mg of solid test compound was added, to give a final concentration of 4 mg/ml. The agar was solidified in slants. The fungal cultures were then innoculated. The slants were incubated at 25-28 ° C. for 10-12 days, and the growth of the fungus was recorded every second day. The results in Table 2 indicate growth at the 12th day of inoculation.

[6] = tested on: Trichophyton mentagrophyte; assay: Agar dilution method, growth on Sabouraud dextrose agar slants; assay type: cell-based, Trichophyton mentagrophytes; parameters: key to Fungal growth: +++: Maximum Fungal Growth; ++: Moderate Fungal Growth; +: Minimum Fungal Growth; +/−: Very little Fungal Growth; −: No Fungal Growth; details: 12th day after inoculation
Protocol: as §1

Epidermophyton floccosum [7] = assay: as above; assay type: cell-based; parameters: key to Fungal growth: +++: Maximum Fungal Growth; ++: Moderate Fungal Growth; +: Minimum Fungal Growth; +/−: Very little Fungal Growth; −: No Fungal Growth; details: 12th day after inoculation
Protocol: as §1

Pityrosporum ovale [8] = assay: Direct addition into the Pityrosporum agar; assay type: cell-based; parameters: key to Pityrosporum ovale growth: +++: Maximum Growth; ++: Moderate Growth; +: Minimum Growth; +/−: Very Little Growth; −: No Growth; details: for Growth inhibition of Pityrosporum ovale by the direct addition method: 4 mg/ml; for Pityrosporum ovale growth: 4 mg/ml in the agar, 18 hours after inoculation
Protocol: as §2, with “The slants were incubated at 25-28 ° C. for 10-12 days, and the growth of the fungus was recorded every second day. The results in Table 2 indicate growth at the 12th day of inoculation.” left out

Microsporum audouinii = assay: Summary of anti-fungal assays (direct addition, agar dilution, liquid culture); assay type: cell-based; details: stated in words (Tables 1a/1b, text to Table 5)
Protocol: (§3) This example summarizes the results of various other assays of the anti-fungal activity of betulin derivatives. Table 5 summarizes results using different assay methods—direct addition, agar dilution, and direct addition to liquid culture, as disclosed in the previous three Examples. In some cases, only one type of assay was done with a compound. In other cases, the compound was tested by multiple assays.

P. ovale = assay: as above; assay type: cell-based, Pityrosporum ovale; details: stated in words (Tables 1a/1b, text to Table 5)
Protocol: as §3

Microsporum canis [9] = assay: Direct addition method, solid compound in Sabouraud dextrose agar; assay type: cell-based; parameters: key: +++: Maximum Fungal Growth; ++: Moderate Fungal Growth; +: Minimum Fungal Growth; +/−: Very little Fungal Growth; −: No Fungal Growth; details: 4 mg/mL of agar; 12th day after inoculation
Protocol: as §2

Trichophyton rubrum [10] = assay: as above; assay type: cell-based; parameters: key: +++: Maximum Fungal Growth; ++: Moderate Fungal Growth; +: Minimum Fungal Growth; +/−: Very little Fungal Growth; −: No Fungal Growth; details: 4 mg/mL of agar; 12th day after inoculation
Protocol: as §2

Epidermophyton floccosum [11] = assay: as above; assay type: cell-based; parameters: key: +++: Maximum Fungal Growth; ++: Moderate Fungal Growth; +: Minimum Fungal Growth; +/−: Very little Fungal Growth; −: No Fungal Growth; details: 4 mg/mL of agar; 12th day after inoculation
Protocol: as §2

Pityrosporum ovale [12] = assay: as above; assay type: cell-based; parameters: key: +++: Maximum Fungal Growth; ++: Moderate Fungal Growth; +: Minimum Fungal Growth; +/−: Very little Fungal Growth; −: No Fungal Growth; details: 4 mg/mL of agar; 12th day after inoculation
Protocol: as §2

Trichophyton tonsuran = assay: Agar dilution method, growth on Sabouraud dextrose agar slants; assay type: cell-based, Trichophyton tonsurans; parameters: key: +++: Maximum Fungal Growth; ++: Moderate Fungal Growth; +: Minimum Fungal Growth; +/−: Very little Fungal Growth; −: No Fungal Growth; details: 12th day after inoculation
Protocol: as §1

Trichophyton rubrum [13] = assay: Summary of anti-fungal assays (direct addition, agar dilution, liquid culture); assay type: cell-based; details: stated in words (Tables 1a/1b, text to Table 5)
Protocol: as §3

Epidermophyton floccosum [14] = assay: as above; assay type: cell-based; details: stated in words (Tables 1a/1b, text to Table 5)
Protocol: as §3

[15] = tested on: Trichophyton mentagrophytes; assay: as above; assay type: cell-based; details: stated in words (Tables 1a/1b, text to Table 5)
Protocol: as §3

Microsporum canis [16] = assay: Direct addition method, solid compound in Sabouraud dextrose agar; assay type: cell-based; details: against Microsporum canis
Protocol: as §2

Trichophyton tonsurans = assay: Summary of anti-fungal assays (direct addition, agar dilution, liquid culture); assay type: cell-based; details: stated in words (Tables 1a/1b, text to Table 5)
Protocol: as §3

melting point: 167 to 170 °C (dec.)
SMILES: C=C(C)[C@@H]1CCC2(CO)CC[C@@]3(C)C(CCC4[C@@]5(C)C=C(O)C(=O)C(C)(C)C5CC[C@]43C)C12 (stereo partly shown)

SMILES: CC1(C)CCC23CC[C@@]4(C)C(CCC5[C@@]6(C)CC[C@H](O)C(C)(C)C6CC[C@]54C)C2C1OC3 (stereo partly drawn) [Allobetulin, oleanan-3β-ol-28,19-β-ether]
Fungal growth (Microsporum canis [1]; 9 μg/ml): +++
Fungal growth (Microsporum canis [1]; 19 μg/ml): ++
Fungal growth (Microsporum canis [1]; 38 μg/ml): ++
Fungal growth (Microsporum canis [1]; 75 μg/ml): −
Fungal growth (Trichophyton rubrum [2]; 9 μg/ml): ++
Fungal growth (Trichophyton rubrum [2]; 19 μg/ml): ++
Fungal growth (Trichophyton rubrum [2]; 38 μg/ml): +
Fungal growth (Trichophyton rubrum [2]; 75 μg/ml): −
Fungal growth (Microsporum gypseum; 9 μg/ml): +++
Fungal growth (Microsporum gypseum; 19 μg/ml): ++
Fungal growth (Microsporum gypseum; 38 μg/ml): ++
Fungal growth (Microsporum gypseum; 75 μg/ml): −
Fungal growth (Pityrosporum ovale [3]; 9 μg/ml): +++
Fungal growth (Pityrosporum ovale [3]; 19 μg/ml): +++
Fungal growth (Pityrosporum ovale [3]; 38 μg/ml): ++
Fungal growth (Pityrosporum ovale [3]; 75 μg/ml): −
Fungal growth (Microsporum audouinni [4]; 9 μg/ml): +/−
Fungal growth (Microsporum audouinni [4]; 19 μg/ml): −
Fungal growth (Microsporum audouinni [4]; 38 μg/ml): −
Fungal growth (Microsporum audouinni [4]; 75 μg/ml): −
Fungal growth (Microsporum audouinni [5]): +
Fungal growth ([6]; 9 μg/ml): ++
Fungal growth ([6]; 19 μg/ml): +
Fungal growth ([6]; 38 μg/ml): +
Fungal growth ([6]; 75 μg/ml): −
Fungal growth (Epidermophyton floccosum [7]; 9 μg/ml): ++
Fungal growth (Epidermophyton floccosum [7]; 19 μg/ml): +
Fungal growth (Epidermophyton floccosum [7]; 38 μg/ml): +
Fungal growth (Epidermophyton floccosum [7]; 75 μg/ml): −
Growth inhibition of Pityrosporum ovale by the direct addition method (Pityrosporum ovale [8]): inhibited the growth
Pityrosporum ovale growth (Pityrosporum ovale [8]): +/−
Active against Microsporum audouinii (Microsporum audouinii): Microsporum audouinii
Active against Pityrosporum ovale (P. ovale): Pityrosporum ovale
Fungal growth (Microsporum canis [9]): ++
Fungal growth (Trichophyton rubrum [10]): +
Fungal growth (Epidermophyton floccosum [11]): −
Fungal growth (Pityrosporum ovale [12]): −
Fungal growth (Trichophyton tonsuran; 9 μg/ml): +++
Fungal growth (Trichophyton tonsuran; 19 μg/ml): ++
Fungal growth (Trichophyton tonsuran; 38 μg/ml): ++
Fungal growth (Trichophyton tonsuran; 75 μg/ml): −

SMILES: CC(C)C(N)C(=O)OC1CCC2(C)C(CCC3(C)C2CCC2C4C5OCC4(CCC5(C)C)CCC23C)C1(C)C [Allobetulin-3-L-valine]
Fungal growth (Microsporum audouinni [5]): −
best anti-fungal or anti-yeast activity by the direct addition method (Microsporum audouinni [5]; against Microsporum audouinii): against Microsporum audouinii
Growth inhibition of Pityrosporum ovale by the direct addition method (Pityrosporum ovale [8]): inhibited the growth
Pityrosporum ovale growth (Pityrosporum ovale [8]): +
Active against Microsporum audouinii (Microsporum audouinii): Microsporum audouinii
Active against Pityrosporum ovale (P. ovale): Pityrosporum ovale
Fungal growth (Microsporum canis [9]): +
Fungal growth (Trichophyton rubrum [10]): +
Fungal growth (Epidermophyton floccosum [11]): −
Fungal growth (Pityrosporum ovale [12]): −

melting point: 312.5 to 315.4 °C (dec.)
SMILES: CC(=O)OC1CC[C@@]2(C)C(CC[C@]3(C)C2CCC2C4C5OC(=O)C4(CCC5(C)C)CC[C@@]23C)C1(C)C (stereo partly drawn) [Allobetulinlactone-3-acetate, oleanan-28,19-β-lactone-3-acetate]

SMILES: C=C(C)C1CCC2(COC(=O)CC(C)(C)CC(=O)O)CCC3(C)C(CCC4C5(C)CCC(OC(=O)CC(C)(C)CC(=O)O)C(C)(C)C5CCC43C)C12 (stereo not shown) [Betulin-3,28-di(3′,3′-dimethyl)glutarate]
Active against Trichophyton rubrum (Trichophyton rubrum [13]): Trichophyton rubrum,
Active against Microsporum audouinii (Microsporum audouinii): Microsporum audouinii,
Active against Epidermophyton floccosum (Epidermophyton floccosum [14]): against Epidermophyton floccosum
Active against Trichophyton mentagrophytes [15]: Trichophyton mentagrophytes,

SMILES: C=C(C)C1CCC2(COC(=O)CCC(=O)O)CC[C@@]3(C)C(CCC4[C@@]5(C)CCC(OC(=O)CCC(=O)O)C(C)(C)C5CC[C@]43C)C12 (stereo partly shown) [Betulin-3,28-disuccinate]
Fungal growth (Microsporum canis [1]; 125 μg/ml): ++
Fungal growth (Microsporum canis [1]; 250 μg/ml): +
Fungal growth (Microsporum canis [1]; 500 μg/ml): +
Fungal growth (Microsporum canis [1]; 1000 μg/ml): −
Fungal growth (Trichophyton rubrum [2]; 125 μg/ml): ++
Fungal growth (Trichophyton rubrum [2]; 250 μg/ml): +
Fungal growth (Trichophyton rubrum [2]; 500 μg/ml): +
Fungal growth (Trichophyton rubrum [2]; 1000 μg/ml): −
Fungal growth (Microsporum gypseum; 125 μg/ml): ++
Fungal growth (Microsporum gypseum; 250 μg/ml): +
Fungal growth (Microsporum gypseum; 500 μg/ml): +
Fungal growth (Microsporum gypseum; 1000 μg/ml): −
Fungal growth (Pityrosporum ovale [3]; 125 μg/ml): +++
Fungal growth (Pityrosporum ovale [3]; 250 μg/ml): +++
Fungal growth (Pityrosporum ovale [3]; 500 μg/ml): +++
Fungal growth (Pityrosporum ovale [3]; 1000 μg/ml): +
Fungal growth (Microsporum audouinni [4]; 125 μg/ml): +
Fungal growth (Microsporum audouinni [4]; 250 μg/ml): −
Fungal growth (Microsporum audouinni [4]; 500 μg/ml): −
Fungal growth (Microsporum audouinni [4]; 1000 μg/ml): −
Fungal growth (Microsporum audouinni [5]): +
Fungal growth ([6]; 125 μg/ml): ++
Fungal growth ([6]; 250 μg/ml): +
Fungal growth ([6]; 500 μg/ml): +
Fungal growth ([6]; 1000 μg/ml): −
Fungal growth (Epidermophyton floccosum [7]; 125 μg/ml): ++
Fungal growth (Epidermophyton floccosum [7]; 250 μg/ml): +
Fungal growth (Epidermophyton floccosum [7]; 500 μg/ml): +
Fungal growth (Epidermophyton floccosum [7]; 1000 μg/ml): −
Pityrosporum ovale growth (Pityrosporum ovale [8]): +
Active against Microsporum audouinii (Microsporum audouinii; listed as Betulin-3.28-di-succinate): Microsporum audouinii,
best anti-fungal or anti-yeast activity by the direct addition method (Microsporum canis [16]): against Microsporum canis
Fungal growth (Microsporum canis [9]): −
Fungal growth (Trichophyton rubrum [10]): +
Fungal growth (Epidermophyton floccosum [11]): −
Fungal growth (Pityrosporum ovale [12]): −
Fungal growth (Trichophyton tonsuran; 125 μg/ml): ++
Fungal growth (Trichophyton tonsuran; 250 μg/ml): +
Fungal growth (Trichophyton tonsuran; 500 μg/ml): +
Fungal growth (Trichophyton tonsuran; 1000 μg/ml): −

SMILES: C=C(C)C1CCC2(COC(=O)CCCC(=O)O)CCC3(C)C(CCC4C5(C)CCC(O)C(C)(C)C5CCC43C)C12 (stereo not shown) [Betulin-28-glutarate]
Fungal growth (Microsporum audouinni [5]): +
Growth inhibition of Pityrosporum ovale by the direct addition method (Pityrosporum ovale [8]): inhibited the growth
Pityrosporum ovale growth (Pityrosporum ovale [8]): +/−
Active against Trichophyton rubrum (Trichophyton rubrum [13]): Trichophyton rubrum,
Active against Trichophyton tonsurans (Trichophyton tonsurans): Trichophyton tonsurans,
Active against Epidermophyton floccosum (Epidermophyton floccosum [14]; listed as betulin-28-glutarate): against Epidermophyton floccosum
Active against Trichophyton mentagrophytes [15]: Trichophyton mentagrophytes,
Active against Pityrosporum ovale (P. ovale): Pityrosporum ovale,
Fungal growth (Microsporum canis [9]): +
Fungal growth (Trichophyton rubrum [10]): +
Fungal growth (Epidermophyton floccosum [11]): −
Fungal growth (Pityrosporum ovale [12]): −
